According to patent US8486945B2, “Heterocyclic inhibitors of an Hh-signal cascade, medicinal compositions based thereon and methods for treating diseases caused by the aberrant activity of an Hh-signal system” (priority 2007, dated 2013):

system: Hh-signalling cascade; experiment: Inhibition of SHh-induced alkaline phosphatase in C3H10T1/2 cells (Hh-signalling cascade inhibition); format: cell-based; conditions: Mus musculus, C3H 10T1/2, half maximal inhibition of SHh (0.3 μg/ml) stimulation of cell alkaline phosphatase
Text: C3H10T1/2 Cells were used for identification of inhibitors of SHh-protein signaling cascade. SHh-protein activates C3H10T1/2 cells, that leads to their osteogenic differentiation [1) Kinto N., Iwamoto M., Enomoto-Iwamoto M., Noji S., Ohuchi H., Yoshioka H., Kataoka H., Wada Y., Yuhao G., Takahashi H. E., Yoshiki S., Yamaguchi A. Fibroblasts expressing Sonic hedgehog induce osteoblast differentiation and ectopic bone formation. FEBS Lett. 1997; 404(2-3): 319-23. 2) Spinella-Jaegle S., Rawadi G., Kawai S., Gallea S., Faucheu C., Mollat P., Courtois B., Bergaud B., Ramez V., Blanchet A. M., Adelmant G., Baron R., Roman-Roman S. Sonic hedgehog increases the commitment of pluripotent mesenchymal cells into the osteoblastic lineage and abolishes adipocytic differentiation. J. Cell Sci. 2001; 114(Pt 11): 2085-94] and, in particular, to expression enhancement of alkaline phosphatase enzyme.
The cells were cultivated in DMEM medium with 10% embryonal calfish serum in incubator at 37° C., 100% humidity and 5% CO2 content. The cells were placed in 384-well plates and left for night. On the next day the tested compounds in concentration of 10 μM were added to the cells, incubated for 30 min, then recombinant (R & D Systems, USA) SHh protein in concentration of 0.3 μg/ml was added and incubation was continued for 3 days. Cells with DMSO instead of a test compound and cells without SHh protein were used as test control. For determination of the cell alkaline phosphatase activity the cells were lysed in the buffer containing 0.2% Triton-X100, lisates were incubated together with proluminescent substrate CSPD (Applied Biosystems, USA) and the resultant luminescence was measured using reader VICTOR^2V (PerkinElmer, USA).
The ability of the compounds to inhibit Hh-signalling cascade was determined using C3H10T1/2 cells in 384-well plates as described in example 1. The compounds were added in triplicates in various concentrations, prepared by multiple dilution of starting solutions (concentration dependences of cell alkaline phosphatase inhibition induced by the addition of tested compounds are shown in FIG. 1). Activity of the compounds was characterized by their concentrations produced half maximal inhibition of stimulation of cell alkaline phosphatase SHh (IC50).

Row | IC50 [µM] | Compound
1 | < 50 | COc1ccc(NC(=O)CCCN2C(=O)CSc3c2c(C)nn3-c2ccccc2)cc1 [II-1026, N-(4-Methoxyphenyl)-4-(3-methyl-5-oxo-1-phenyl-5,6-dihydro-1H-pyrazolo[3,4-b][1,4]thiazin-4-yl)butyramide]
2 | < 0.5 | CN1CCN(C(=O)C2CCN(C(=O)c3cc4sccc4n3Cc3ccc(N(C)C)cc3)CC2)CC1 [V-1054, [4-(4-Dimethylaminobenzyl)-4H-thieno[3,2-b]pyrrol-5-yl]-[4-(4-methylpiperazine-1-carbonyl)piperidin-1-yl]methanone]
3 | < 50 | COc1ccc(CCNC(=O)CN2C(=O)CSc3c2c(C)nn3-c2ccccc2)cc1OC [II-1005, N-[2-(3,4-Dimethoxyphenyl)ethyl]-2-(3-methyl-5-oxo-1-phenyl-5,6-dihydro-1H-pyrazolo[3,4-b][1,4]thiazin-4-yl)acetamide]
4 | < 0.5 | Cc1nn(-c2ccccc2)c2c1N(CC(=O)Nc1cccc(C(F)(F)F)c1)C(=O)CS2 [II-1002, 2-(3-Methyl-5-oxo-1-phenyl-5,6-dihydro-1H-pyrazolo[3,4-b][1,4]thiazin-4-yl)-N-(3-trifluoromethylphenyl)acetamide]
5 | < 5 | Cc1ccc(-n2nc3c(=O)n(CC(=O)Nc4ccccc4F)nc(C)c3c2C)c(C)c1 [I-1014, 2-[2-(2,4-dimethylphenyl)-3,4-dimethyl-7-oxo-2,7-dihydro-6H-pyrazolo[3,4-c]pyridazin-6-yl]-N-(2-fluorophenyl)acetamide]
6 | < 5 | O=C(Nc1ccc(-c2cn3ccccc3n2)cc1)c1ccc(Cl)cc1 [III-1005, 4-Chloro-N-(4-(imidazo[1,2-a]pyridin-2-yl)phenyl)benzamide]
7 | < 0.5 | Cc1ccc(NC(=O)C2CCN(C(=O)c3cc4sccc4n3Cc3ccc(F)cc3)CC2)c(C)c1 [V-1034, 1-[4-(4-Fluorobenzyl)-4H-thieno[3,2-b]pyrrole-5-carbonyl]piperidine-4-carboxylic acid (2,4-dimethylphenyl)amide]
8 | < 5 | CCC(C(=O)NC1CC1)n1nc(C)c2c(C)n(-c3ccc(C)cc3)nc2c1=O (stereo not shown) [I-1018, 2-[2-(4-Methylphenyl)-3,4-dimethyl-7-oxo-2,7-dihydro-6H-pyrazolo[3,4-c]pyridazin-6-yl]-N-(cyclopropyl)butanamide]
9 | < 0.5 | CN1CCN(C(=O)C2CCN(C(=O)c3cc4sccc4n3Cc3ccccc3F)CC2)CC1 [V-1051, [4-(2-Fluorobenzyl)-4H-thieno[3,2-b]pyrrol-5-yl]-[4-(4-methylpiperazine-1-carbonyl)piperidin-1-yl]methanone]
10 | < 5 | Cc1nn(-c2ccccc2)c2c1N(CC(=O)NCc1ccccn1)C(=O)CS2 [II-1003, 2-(3-Methyl-5-oxo-1-phenyl-5,6-dihydro-1H-pyrazolo[3,4-b][1,4]thiazin-4-yl)-N-(pyridin-2-ylmethyl)acetamide]
11 | < 0.5 | Cc1nc(-c2ccccc2)sc1C(=O)Nc1cccc(-c2cn3ccccc3n2)c1 [III-1030, 4-Methyl-2-phenylthiazol-5-carboxylic acid [3-(imidazo[1,2-a]pyridin-2-yl)phenyl]amide]
12 | < 50 | COc1ccc(CNC(=O)CN2C(=O)CSc3c2c(C)nn3-c2ccccc2)cc1 [II-1007, N-(4-Methoxybenzyl)-2-(3-methyl-5-oxo-1-phenyl-5,6-dihydro-1H-pyrazolo[3,4-b][1,4]thiazin-4-yl)acetamide]
13 | < 5 | O=C(NCc1ccccn1)C1CCN(C(=O)c2cc3sccc3n2Cc2ccc(F)cc2F)CC1 [V-1030, 1-[4-(2,4-Difluorobenzyl)-4H-thieno[3,2-b]pyrrole-5-carbonyl]piperidine-4-carboxylic acid [(pyridin-2-yl)methyl]amide]
14 | < 0.5 | CCN(CC)CCCNC(=O)C1CCN(C(=O)c2cc3sccc3n2Cc2ccc(F)cc2)CC1 [V-1032, 1-[4-(4-Fluorobenzyl)-4H-thieno[3,2-b]pyrrole-5-carbonyl]piperidine-4-carboxylic acid 3-(diethylamino)propylamide]
15 | < 5 | Cc1nn(CCC(=O)NCc2cccs2)c(=O)c2nn(-c3ccccc3)c(C)c12 [I-1022, 3-(2-Phenyl-3,4-dimethyl-7-oxo-2,7-dihydro-6H-pyrazolo[3,4-c]pyridazin-6-yl)-N-(thien-2-ylmethyl)propanamide]
16 | < 5 | CCC(C(=O)N1CCOCC1)n1nc(C)c2c(C)n(-c3ccccc3)nc2c1=O (stereo not shown) [I-1015, 2-Phenyl-3,4-dimethyl-6-[1-(morpholin-4-ylcarbonyl)propyl]-2,6-dihydro-7H-pyrazolo[3,4-c]pyridazin-7-one]
17 | < 0.5 | CN1CCN(C(=O)C2CCN(C(=O)c3cc4sccc4n3Cc3ccc4c(c3)OCO4)CC2)CC1 [V-1055, [4-(3,4-Methylendioxybenzyl)-4H-thieno[3,2-b]pyrrol-5-yl]-[4-(4-methylpiperazine-1-carbonyl)piperidin-1-yl]methanone]
18 | > 50 | Cc1nn(-c2ccccc2)c2c1N(CC(=O)N1CCCC1)C(=O)CS2 [II-1013, 3-Methyl-4-[2-oxo-2-(pyrrolidin-1-yl)ethyl]-1-phenyl-1,4-dihydropyrazolo[3,4-b][1,4]thiazin-5-one]
19 | < 0.5 | COc1ccc(C(=O)Nc2cccc(-c3cn4ccccc4n3)c2)cc1 [III-1018, N-(3-(Imidazo[1,2-a]pyridin-2-yl)phenyl)-4-methoxybenzamide]
20 | < 0.5 | CCN1CCCC1CNC(=O)C1CCN(C(=O)c2cc3sccc3n2Cc2ccc(F)cc2)CC1 (stereo not shown) [V-1038, 1-[4-(4-Fluorobenzyl)-4H-thieno[3,2-b]pyrrole-5-carbonyl]piperidine-4-carboxylic acid [(1-ethylpyrrolidin-2-yl)methyl]amide]
21 | < 50 | CN1CCc2c(sc(NC(=O)c3cccc(C(F)(F)F)c3)c2-c2nc3ccccc3s2)C1 [VIII-1026, N-(3-(Benzo[d]thiazol-2-yl)-6-methyl-4,5,6,7-tetrahydrothieno[2,3-c]pyridin-2-yl)-3-trifluoromethylbenzamide]
22 | < 0.5 | Cc1nn(-c2ccccc2)c2c1N(CC(=O)N1CCN(c3ccc(Cl)cc3)CC1)C(=O)CS2 [II-1012, 4-{2-[4-(4-Chlorophenyl)piperazin-1-yl]-2-oxoethyl}-3-methyl-1-phenyl-1,4-dihydropyrazolo[3,4-b][1,4]thiazin-5-one]
23 | < 0.5 | Cc1ccc(NC(=O)C2CCN(C(=O)c3cc4sccc4n3Cc3ccc(F)cc3)CC2)cc1C [V-1035, 1-[4-(4-Fluorobenzyl)-4H-thieno[3,2-b]pyrrole-5-carbonyl]piperidine-4-carboxylic acid (3,4-dimethylphenyl)amide]
24 | < 5 | O=C(NCC1CCCO1)C1CCN(C(=O)c2cc3sccc3n2Cc2ccc(Cl)cc2)CC1 (stereo not shown) [V-1046, 1-[4-(4-Chlorobenzyl)-4H-thieno[3,2-b]pyrrole-5-carbonyl]piperidine-4-carboxylic acid [(tetrahydrofuran-2-yl)methyl]amide]
25 | < 5 | O=C(Nc1ccc(F)cc1)c1ccc2c(c1)CCCN2S(=O)(=O)c1ccccc1 [VII-1012, 1-Phenylsulfonyl-1,2,3,4-tetrahydroquinoline-6-carboxylic acid (4-fluorophenyl)amide]
26 | < 5 | Cc1nn(CCC(=O)NCc2cccnc2)c(=O)c2nn(-c3ccccc3)c(C)c12 [I-1019, 3-(2-Phenyl-3,4-dimethyl-7-oxo-2,7-dihydro-6H-pyrazolo[3,4-c]pyridazin-6-yl)-N-(pyridin-3-ylmethyl)propanamide]
27 | < 0.5 | Cc1ccc(CNC(=O)C2CCN(C(=O)c3cc4sccc4n3Cc3ccc(F)cc3)CC2)cc1 [V-1033, 1-[4-(4-Fluorobenzyl)-4H-thieno[3,2-b]pyrrole-5-carbonyl]piperidine-4-carboxylic acid [(4-methylphenyl)methyl]amide]
28 | < 5 | CCOc1ccc(NC(=O)c2ccnc(N3CCC(C(=O)Nc4ccc(F)cc4)CC3)c2)cc1 [VI-1007, 3,4,5,6-Tetrahydro-2H-[1,2′]bipyridinyl-4,4′-carboxylic acid 4′-[(4-ethoxyphenyl)amide] 4-[(4-fluorophenyl)amide]]
29 | < 5 | O=C(Nc1ccc(-c2cn3ccccc3n2)cc1)c1cccs1 [III-1004, N-(4-(Imidazo[1,2-a]pyridin-2-yl)phenyl)thiophen-2-carboxamide]
30 | > 50 | Cc1nn(-c2ccccc2)c2c1N(CC(=O)NCCN1CCOCC1)C(=O)CS2 [II-1010, 2-(3-Methyl-5-oxo-1-phenyl-5,6-dihydro-1H-pyrazolo[3,4-b][1,4]thiazin-4-yl)-N-(2-morpholin-4-yl)ethylacetamide]

same assay, conditions: half maximal inhibition of SHh (0.3 μg/ml) stimulation of cell alkaline phosphatase

Row | IC50 [µM] | Compound
31 | < 5 | O=C(c1cc2sccc2n1Cc1ccc(Cl)cc1)N1CCC(C(=O)N2CCCC2)CC1 [V-1027, [4-(4-Chlorobenzyl)-4H-thieno[3,2-b]pyrrol-5-yl]-[4-(pyrrolidin-1-carbonyl)piperidin-1-yl]methanone]
